From US20220306695A1, “COMPSTATIN ANALOGUES AND THEIR MEDICAL USES” (priority 2019, published 2022)
Positions of bridges follow the written chain, without caps; N, C: chain ends. Non-standard residues stand in square brackets, D forms with d. Residues, ends and D or L forms follow the SMILES beside them. Trp(1-Me) = Cn1cc(C[C@H](N)C(=O)O)c2ccccc21; Sar = CNCC(=O)O

How the values were obtained:
[1] = Solubility test at 10 mg/mL (visual inspection and light scattering); type: physicochemical; conditions: for Solubility, Condition 1 Acetate pH 4: 10 mg/mL compound in 100 mM acetate pH 4; for Solubility, Condition 2 Acetate pH 5: 10 mg/mL compound in 100 mM acetate pH 5; for Solubility, Condition 3 Phosphate pH 6: 10 mg/mL compound in 100 mM phosphate pH 6; for Solubility, Condition 4 Phosphate pH 7: 10 mg/mL compound in 100 mM phosphate pH 7; for Solubility, Condition 5 Phosphate pH 7.5: 10 mg/mL compound in 100 mM phosphate pH 7.5
[2] = test system: classical complement pathway; experiment: In vitro haemolysis assay (inhibition of classical complement pathway); type: cell-based, human; conditions: Table 3; human serum, sensitized sheep red blood cells; read-out: IC50[nM], in vitro analysis of inhibition of hemolysis
Summary of the method: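 Serially diluted compound (9 points) was preincubated 15 min at room temperature with diluted human serum, titrated per batch to give 70-90% maximal haemolysis, in Tris/casein buffer pH 7.4 with Mg2+/Ca2+. Antibody-sensitized sheep erythrocytes were then added for 30 min at 37° C, and the reaction was stopped with EDTA. Haemolysis was read at A405, with IC50 from 4PL fit.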

[3] = test system: alternative complement pathway; experiment: Ex vivo alternative pathway complement activity (WIESLAB kit) in serum of dosed non-human primates; design: species or system Cynomolgus monkeys (Macaca fascicularis); conditions: NHP, subcutaneous 1840 nmol/kg, FIG. 1
Protocol: FIG. 1(a-g): Normalized “ex vivo” activity of the alternative complement pathway over time after administration of a test compound at time 0 to non-human primates. Compounds were given subcutaneously at a dose of 1840 nmol/kg. Complement activity (alternative pathway) was measured using the Wieslab kit. Activity was normalized using the predose (0) sample (set to 100%) and the negative control included in the kit. Normalized activity or average normalized activity for animals and standard deviation is shown.
Healthy male Cynomolgus monkeys (Macaca fascicularis) received single subcutaneous administrations of each test substance. Compounds were formulated in 20 mM phosphate adjusted with NaOH to pH 7.5 and mannitol for isotonicity and dosed at 1840 nmol/kg. Blood was collected from a femoral vein from each animal at the following times: Pre-dose, 1, 2, 4, 8, 24, 48, 72, 96 and 120 h (10 sampling times). Blood was collected into serum separation tubes and allowed to clot at room temperature. The tubes were centrifuged and resulting serum was aliquoted and snap-frozen over dry-ice and stored at nominally −80° C. until analysis. All NHP studies were performed in accordance with animal welfare laws and regulations, including approval of the study by a local ethical review process.
Serum isolated from non-human primates at specific time points after dosing were analyzed for alternative pathway complement activity using the Complement system Alternative Pathway WIESLAB® kit from Svar Life Science (previously Euro diagnostic AB, Sweden) following the manufacturer's protocol. Briefly, serum samples or controls were diluted in buffer and incubated in microtitre strips coated with specific activators of the alternative pathway. The wells were washed and formed C5b-9 was detected using included colorimetric reagents.
Absorbance at 405 nm was measured. The percent activity of the alternative complement pathway was calculated for each animal and timepoint relative to the pre-dose activity (0 hours) of the individual animal with subtraction of the negative control. […]

in vivo = experiment: in vivo; design: species or system Cynomolgus monkeys (Macaca fascicularis); conditions: male, cynomolgus monkey, sc, 1840 nmol/kg, t½
Summary of the method: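 Healthy male cynomolgus monkeys dosed once subcutaneously at 1840 nmol/kg in 20 mM phosphate pH 7.5 with mannitol. Serum sampled pre-dose to 120 h and total drug measured by SPE and LC-MS/MS. Terminal half-life calculated non-compartmentally as ln(2)/λz from the terminal log-linear phase.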

Human C3 [4] = molecular target: T1, Human C3 (human, UniProt P01024 23-1663); experiment: cell-based or functional assay
T1 sequence (P01024 23-1663 limits assumed): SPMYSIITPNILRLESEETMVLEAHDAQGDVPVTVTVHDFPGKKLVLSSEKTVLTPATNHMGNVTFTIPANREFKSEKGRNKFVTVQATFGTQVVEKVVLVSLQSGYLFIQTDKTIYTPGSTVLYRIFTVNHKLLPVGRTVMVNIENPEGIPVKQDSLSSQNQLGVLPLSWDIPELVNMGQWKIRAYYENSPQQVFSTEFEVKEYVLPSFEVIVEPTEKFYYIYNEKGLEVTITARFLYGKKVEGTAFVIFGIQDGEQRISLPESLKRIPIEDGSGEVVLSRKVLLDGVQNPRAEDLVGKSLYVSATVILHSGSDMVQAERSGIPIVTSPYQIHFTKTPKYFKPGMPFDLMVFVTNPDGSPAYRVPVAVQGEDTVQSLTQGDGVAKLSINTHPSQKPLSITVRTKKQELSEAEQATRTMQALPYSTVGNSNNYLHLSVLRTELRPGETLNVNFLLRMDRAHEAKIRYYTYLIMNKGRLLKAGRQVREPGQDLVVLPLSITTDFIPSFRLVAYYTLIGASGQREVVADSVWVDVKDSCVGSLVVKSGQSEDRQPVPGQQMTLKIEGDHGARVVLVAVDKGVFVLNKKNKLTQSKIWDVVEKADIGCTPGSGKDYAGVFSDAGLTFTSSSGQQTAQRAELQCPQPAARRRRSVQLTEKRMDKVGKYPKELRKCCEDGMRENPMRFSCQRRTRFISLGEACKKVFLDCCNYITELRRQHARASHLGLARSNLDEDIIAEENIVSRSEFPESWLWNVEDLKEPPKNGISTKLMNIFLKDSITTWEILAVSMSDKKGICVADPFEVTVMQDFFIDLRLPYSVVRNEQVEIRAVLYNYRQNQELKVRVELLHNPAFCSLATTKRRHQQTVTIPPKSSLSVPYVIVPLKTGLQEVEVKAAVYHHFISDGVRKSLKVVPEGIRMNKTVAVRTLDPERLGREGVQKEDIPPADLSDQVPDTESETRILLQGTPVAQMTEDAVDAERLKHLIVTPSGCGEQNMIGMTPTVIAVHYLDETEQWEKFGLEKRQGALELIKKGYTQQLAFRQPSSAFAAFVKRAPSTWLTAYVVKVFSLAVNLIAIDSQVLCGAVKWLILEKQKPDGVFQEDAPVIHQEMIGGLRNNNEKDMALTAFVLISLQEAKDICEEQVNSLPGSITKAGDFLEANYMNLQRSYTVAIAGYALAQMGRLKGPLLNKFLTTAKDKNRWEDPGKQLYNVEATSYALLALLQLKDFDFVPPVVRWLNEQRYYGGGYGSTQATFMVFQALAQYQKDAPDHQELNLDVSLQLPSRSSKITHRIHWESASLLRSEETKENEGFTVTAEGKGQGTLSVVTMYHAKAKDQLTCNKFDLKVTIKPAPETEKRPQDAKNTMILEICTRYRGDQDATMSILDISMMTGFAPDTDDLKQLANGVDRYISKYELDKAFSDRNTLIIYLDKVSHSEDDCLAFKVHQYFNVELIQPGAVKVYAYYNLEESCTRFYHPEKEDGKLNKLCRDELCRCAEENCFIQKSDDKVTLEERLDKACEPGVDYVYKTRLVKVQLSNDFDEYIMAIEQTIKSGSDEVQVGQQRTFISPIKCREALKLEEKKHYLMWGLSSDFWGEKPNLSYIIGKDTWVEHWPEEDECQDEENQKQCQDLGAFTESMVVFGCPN

Human C3 [5] = molecular target: T1, Human C3; experiment: cell-based or functional assay; remark: listed apart in the source

| half-life (in vivo) [h] | Molecule | Solubility, Condition 1 Acetate pH 4 [1] | Solubility, Condition 2 Acetate pH 5 [1] | Solubility, Condition 3 Phosphate pH 6 [1] | Solubility, Condition 4 Phosphate pH 7 [1] | Solubility, Condition 5 Phosphate pH 7.5 [1] | IC50 [2] [nM] | Duration of pharmacological activity (alternative complement pathway activity) in vivo [3] | CP hemolysis IC50 (Human C3 [4]) [nM] | IC50[nM], inhibition of hemolysis (Human C3 [5]) [nM] |
| --- | --- | --- | --- | --- | --- | --- | --- | --- | --- | --- |
| 23.3 | CC[C@H](C)[C@@H]1NC(=O)[C@@H](NC(=O)[C@H](Cc2ccccc2)NC(C)=O)CSSC[C@@H](C(=O)N[C@H](C(=O)NCC(=O)N[C@@H](C)C(=O)N[C@@H](CCC(=O)O)C(=O)N[C@@H](CO)C(N)=O)[C@@H](C)O)NC(=O)[C@H](CCCNC(=N)N)NC(=O)[C@H](Cc2c[nH]cn2)NC(=O)[C@H](CCC(=O)O)NC(=O)CNC(=O)[C@H](Cc2c[nH]c3ccccc23)NC(=O)[C@H](CC(=O)O)NC(=O)[C@H](CCC(N)=O)NC(=O)[C@H](Cc2cn(C)c3ccccc23)NC1=O [Compound 61] (Ac-FCI[Trp(1-Me)]QDWGEHRCTGAES-NH2; disulfide 2-12) | − (denotes lack of solubility at the given condition, as UV absorbance at 340 nm exceeds 0.1 AU and/or it is visibly turbid or contains particles.) | − (denotes lack of solubility at the given condition, as UV absorbance at 340 nm exceeds 0.1 AU and/or it is visibly turbid or contains particles.) | + (denotes solubility at the given condition, as determined by UV absorbance being less than 0.1 AU at 340 nm and the sample being clear when manually inspected.) | + (denotes solubility at the given condition, as determined by UV absorbance being less than 0.1 AU at 340 nm and the sample being clear when manually inspected.) | + (denotes solubility at the given condition, as determined by UV absorbance being less than 0.1 AU at 340 nm and the sample being clear when manually inspected.) | < 100 | relatively short duration of action |  |  |
| 9.71 | CC[C@H](C)[C@@H]1NC(=O)[C@@H](NC(=O)[C@H](Cc2ccc(O)cc2)NC(=O)[C@H](C)NC(=O)[C@H](CO)NC(=O)CNC(=O)[C@H](CCC(=O)O)NC(C)=O)CSSC[C@@H](C(=O)N(C)CC(=O)N[C@@H](CCC(=O)O)C(N)=O)NC(=O)[C@H](CCCNC(=N)N)NC(=O)[C@H](Cc2c[nH]cn2)NC(=O)[C@H](CCC(=O)O)NC(=O)CNC(=O)[C@H](Cc2c[nH]c3ccccc23)NC(=O)[C@H](CC(=O)O)NC(=O)[C@H](CCC(N)=O)NC(=O)[C@H](Cc2cn(C)c3ccccc23)NC1=O [Compound 54] (Ac-EGSAYCI[Trp(1-Me)]QDWGEHRC[Sar]E-NH2; disulfide 6-16) | − (denotes lack of solubility at the given condition, as UV absorbance at 340 nm exceeds 0.1 AU and/or it is visibly turbid or contains particles.) | − (denotes lack of solubility at the given condition, as UV absorbance at 340 nm exceeds 0.1 AU and/or it is visibly turbid or contains particles.) | + (denotes solubility at the given condition, as determined by UV absorbance being less than 0.1 AU at 340 nm and the sample being clear when manually inspected.) | + (denotes solubility at the given condition, as determined by UV absorbance being less than 0.1 AU at 340 nm and the sample being clear when manually inspected.) | + (denotes solubility at the given condition, as determined by UV absorbance being less than 0.1 AU at 340 nm and the sample being clear when manually inspected.) | < 100 | relatively short duration of action |  |  |
|  | Ac-ICIWQDWGAHRCT-NH2 (disulfide 2-12; SMILES CC[C@H](C)[C@H](NC(C)=O)C(=O)N[C@H]1CSSC[C@@H](C(=O)N[C@H](C(N)=O)[C@@H](C)O)NC(=O)[C@H](CCCNC(=N)N)NC(=O)[C@H](Cc2c[nH]cn2)NC(=O)[C@H](C)NC(=O)CNC(=O)[C@H](Cc2c[nH]c3ccccc23)NC(=O)[C@H](CC(=O)O)NC(=O)[C@H](CCC(N)=O)NC(=O)[C@H](Cc2c[nH]c3ccccc23)NC(=O)[C@H]([C@@H](C)CC)NC1=O) [Compound 1] |  |  |  |  |  |  |  | 150 | < 250 |
